Assay results reported in patent publication US12048678B2, “Compounds for treating myelin related disorders” (Case Western Reserve University, priority 2018, dated 2024).

How the values were obtained:
Format in all cases: cell-based
M1 muscarinic receptor = target: T1, M1 muscarinic receptor (Homo sapiens, UniProt P11229); assay: Muscarinic receptor antagonism assay (GeneBLAzer M1-NFAT-bla CHO-K1 cells); settings: Compound 1 at 1 μM, TASIN-1 100 nM; concentration maximally effective for oligodendrocyte formation
T1 sequence (P11229 1-460): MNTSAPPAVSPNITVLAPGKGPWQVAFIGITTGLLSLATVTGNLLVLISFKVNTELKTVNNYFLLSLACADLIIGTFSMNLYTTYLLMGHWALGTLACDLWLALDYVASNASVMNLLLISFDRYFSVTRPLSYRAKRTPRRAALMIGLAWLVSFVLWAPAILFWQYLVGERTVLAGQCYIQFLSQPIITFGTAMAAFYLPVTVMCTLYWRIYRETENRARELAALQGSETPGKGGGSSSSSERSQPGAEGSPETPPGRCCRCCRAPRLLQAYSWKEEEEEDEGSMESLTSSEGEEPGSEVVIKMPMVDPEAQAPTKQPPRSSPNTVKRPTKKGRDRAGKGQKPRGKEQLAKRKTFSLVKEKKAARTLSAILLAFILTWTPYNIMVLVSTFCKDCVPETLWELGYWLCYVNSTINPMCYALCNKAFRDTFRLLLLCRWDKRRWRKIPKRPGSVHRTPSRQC
Experimental: GeneBLAzer M1-NFAT-bla CHO-K1 cells (or M3- or M5-NFAT-bla CHO-K1 cells)(ThermoFisher) were thawed into Assay Media (DMEM, 10% dialyzed FBS, 25 mM HEPES pH 7.3, 0.1 mM NEAA). 10,000 cells/well were added to a 384-well TC treated assay plate and incubated 16-24 h at 37° C. 4 μl of a 10× stock of antimuscarinic molecules was added to the plate and incubated 30 min. 4 μl of 10× control agonist Carbachol at the pre-determined EC80 concentration was added to wells containing antimuscarinic molecules. The plate was incubated 5 h and 8 μl of 1 μM Substrate+Solution D Loading Solution was added to each well and the plate was incubated 2 h at room temperature before reading on a fluorescence plate reader.

[1] = target: T2, estrogen receptor (T47D cells) (Homo sapiens, UniProt P03372); assay: Estrogen-dependent cell proliferation assay; settings: Compound 1 at 1 μM, TASIN-1 100 nM
T2 construct: estrogen dependent growth of T47D cells; endogenous in cells; host or cells: T47D
T2 sequence (P03372 1-595): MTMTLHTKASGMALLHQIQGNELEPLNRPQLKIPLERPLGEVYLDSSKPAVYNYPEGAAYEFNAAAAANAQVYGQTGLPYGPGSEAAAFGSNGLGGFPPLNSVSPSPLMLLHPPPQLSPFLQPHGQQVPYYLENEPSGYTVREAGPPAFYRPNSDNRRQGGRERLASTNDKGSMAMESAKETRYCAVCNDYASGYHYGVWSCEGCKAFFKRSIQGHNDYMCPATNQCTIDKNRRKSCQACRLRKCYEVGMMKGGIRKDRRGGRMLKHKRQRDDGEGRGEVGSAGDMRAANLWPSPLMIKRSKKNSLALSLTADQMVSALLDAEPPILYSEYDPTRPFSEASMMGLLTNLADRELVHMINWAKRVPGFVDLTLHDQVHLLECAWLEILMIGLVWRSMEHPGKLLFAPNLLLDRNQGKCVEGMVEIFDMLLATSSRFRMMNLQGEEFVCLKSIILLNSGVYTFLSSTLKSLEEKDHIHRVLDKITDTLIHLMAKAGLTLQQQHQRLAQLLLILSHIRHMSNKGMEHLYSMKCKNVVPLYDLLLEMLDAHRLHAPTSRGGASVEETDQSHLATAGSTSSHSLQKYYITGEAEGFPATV
Experimental: Estrogen-dependent cell proliferation was measured as previously described with minor modifications. After growth in estrogen-free media (Phenol red-free RPMI supplemented with 10% charcoal stripped fetal bovine serum) for 5 days, cells were seeded at 2,500 cells/well into 96 well plates. The following day 3× drug containing media was added to triplicate wells and cells were allowed to grow for an additional 5 days at 37° C. in standard a 5% CO2 humidified incubator. Total DNA per well was measured using an adaptation of the method of Labarca and Paigen. At this time media was removed, cells were washed one time with 0.25×PBS and 100 μl of distilled water was added. […] After incubation at room temperature for 2 hours, plates were read in a SpectraMax i3 fluorescent plate reader (Molecular Devices, Sunnyvale, CA) with excitation at 360 nm and emission at 460 nm. All values were converted to microgram DNA per well using a standard curve derived from purified salmon testes DNA.

kappa opioid receptor = kappa opioid receptor (Homo sapiens, UniProt P41145); assay: k-Opioid receptor agonism assay (Tango  U2OS cells); settings: Compound 1 at 1 μM, TASIN-1 100 nM, U50488 2 μM
Chain of kappa opioid receptor (P41145 whole entry): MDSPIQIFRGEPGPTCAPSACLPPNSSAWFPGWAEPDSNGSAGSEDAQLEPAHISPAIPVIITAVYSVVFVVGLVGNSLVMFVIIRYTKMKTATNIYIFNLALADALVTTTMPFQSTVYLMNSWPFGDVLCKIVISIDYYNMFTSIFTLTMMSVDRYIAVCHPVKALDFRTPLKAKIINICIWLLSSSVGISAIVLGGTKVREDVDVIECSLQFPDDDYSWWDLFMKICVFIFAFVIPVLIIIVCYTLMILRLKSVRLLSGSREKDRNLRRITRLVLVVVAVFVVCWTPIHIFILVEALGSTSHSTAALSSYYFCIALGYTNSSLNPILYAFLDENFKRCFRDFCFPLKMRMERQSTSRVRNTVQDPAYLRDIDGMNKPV

COc1ccc(S(=O)(=O)N2CCC(N3CCC(C)CC3)CC2)cc1 [TASINI, TASIN-1, reference compound]
little affinity: effect in cell-based assay for the M1 muscarinic receptor (M1 muscarinic receptor) | effect in cell-based assay for the estrogen receptor (estrogen dependent growth of T47D cells) [1] | effect in cell-based assay for the kappa opioid receptor (kappa opioid receptor)
